According to patent US20250177299A1, “MOLECULAR COMPLEXING METHOD, FORMULATION AND MANUFACTURING FOR ENHANCED NUTRIENT DELIVERY” (Ingredient Fusion, LLC, priority 2021, published 2025):
Where two headings read alike, the source gives them in different places.

Assay: long term formulation trials of natural stability and dispersion aids
Assay type: physicochemical
Text: Additionally, popular formularies like lecithin and glycerin were trialed. […] Thus, Glycerin alone was not useful to the invention disclosed herein which requires higher loading rates to achieve improved efficacy and a simplified industrially scalable process.

stability of formulation in trials | Molecule | stability of formulation in trials (used as stabilizing/dispersion aid in nano and micro-emulsion formulations, long term trials)
 | OCC(O)CO [Glycerin] | very low stability unless used in very small quantities
high microbial activity | pectin | 
